This note sets out measurements from publication PMC8804135 (Neurotherapeutics, 2021).

Holding throughout (assay type): cell-based
For assay [1], the target named is T1, GAL2R (Homo sapiens, UniProt O43603).
T1 sequence (O43603 1-387): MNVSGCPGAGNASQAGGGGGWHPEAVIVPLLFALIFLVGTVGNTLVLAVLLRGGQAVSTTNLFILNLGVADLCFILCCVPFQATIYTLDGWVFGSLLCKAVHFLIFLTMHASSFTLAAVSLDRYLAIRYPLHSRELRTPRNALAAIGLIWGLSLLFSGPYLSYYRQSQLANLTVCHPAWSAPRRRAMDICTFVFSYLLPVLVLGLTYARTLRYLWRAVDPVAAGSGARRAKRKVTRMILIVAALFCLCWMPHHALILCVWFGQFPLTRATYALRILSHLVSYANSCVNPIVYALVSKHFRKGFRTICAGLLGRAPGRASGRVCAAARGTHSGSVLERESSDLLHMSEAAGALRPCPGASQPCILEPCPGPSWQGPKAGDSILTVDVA
The assay can be described thus: Fluo-4 Direct calcium assay (Ca efflux) in HEK293 cells overexpressing GAL2R. Conditions: Table 3; HEK293 cells stably overexpressing GAL2R; Fluo-4, from 10 µM; (average) ratio, (n) in cell = number of assays; NA = ratio above 1000. As to the method:
Calcium efflux was measured by using a Fluo-4 Direct Calcium Assay purchased from Thermo Fisher Scientific. HEK293 cells with stable overexpression of GAL2R (HEKR2) (kindly provided by Harald Dargatz, Molecular, Cellular and Pharmacobiology Section, Institute of Pharmaceutical Biology, University of Bonn, 53,115 Bonn, Germany) were used for analysis of the lanthipeptides. HEKR2 cells were seeded in a 96-well plate and grown overnight in DMEM supplemented with 10% FBS, 1% penicillin–streptomycin, 100 µg/ml Normocin, and 500 µg/ml G418 at 37 °C, 5% CO2 in a humidified incubator.
The next day, when the cells were nearly confluent, an equal amount of 2 × Fluo-4 Direct™ calcium reagent loading solution, containing 5 mM probenecid, was added to the wells, and the plate was incubated for 1 h at 37 °C. A serial 3 × dilution of the agonist compound in water was made, and 10 µl of the serial dilutions was applied to the cells in duplicate. The starting concentration of agonist in the assay was 10 µM. After 1–2 h of incubation at room temperature, the fluorescence was measured with excitation at 485/20 nm and emission at 528/20 nm with a Synergy HT Biotek reader.

Assay [2] deals with T2, GAL1R (Homo sapiens, UniProt P47211).
T2 sequence (P47211 1-349): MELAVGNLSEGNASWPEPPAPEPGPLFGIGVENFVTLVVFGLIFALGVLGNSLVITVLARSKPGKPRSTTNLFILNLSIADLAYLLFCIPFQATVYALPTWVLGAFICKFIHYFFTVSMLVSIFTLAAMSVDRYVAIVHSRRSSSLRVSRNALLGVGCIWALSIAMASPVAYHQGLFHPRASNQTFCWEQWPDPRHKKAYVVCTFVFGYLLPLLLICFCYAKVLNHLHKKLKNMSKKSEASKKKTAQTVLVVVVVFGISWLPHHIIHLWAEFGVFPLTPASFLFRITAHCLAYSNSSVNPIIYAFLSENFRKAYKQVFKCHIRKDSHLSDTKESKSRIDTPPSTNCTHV
The assay is described as follows: PathHunter eXpress β-arrestin recruitment assay, GAL1R. Details: expressed in transfected cells. Conditions: Table 3; CHO-K1 cells co-expressing GAL1R and β-arrestin 2; 10 µM to 5 nM; (average) ratio, (n) in cell = number of assays; NA = ratio above 1000. Here is the method: (§1) To evaluate the ability of lanthipeptides to recruit ß-arrestins via GAL1R or via GAL2R, we used the PathHunter® eXpress GAL1R, CHO-K1, β-arrestin GPCR Assay and the PathHunter® eXpress GAL2R, CHO-K1, β-arrestin, GPCR Assay from Eurofins-DiscoverX. The assays were performed according to the manufacturer’s instructions. Briefly, for one assay, CHO-K1 cells co-expressing GAL1R or GAL2R and β-arrestin (isoform 2) were diluted in AssayComplete™ Cell Plating Reagent, and 100 µl was seeded into each well of a 96-well plate. The plate was incubated at 37 °C, 5% CO2 in a humidified incubator. A serial 3 × dilution of the lanthipeptides in water was made (10 µM to 5 nM). After 48 h of incubation, 10 µl of the serial dilutions was applied to the cells in duplicate. The agonists were incubated for 90 min at 37 °C. Next, 55 µL of Working Detection Solution was added, and after 1 h of incubation at room temperature in the dark, the chemiluminescent signal was read with a Synergy HT Biotek reader.
In general terms: Activated receptors often draw arrestin, which recruitment assays turn into a signal.

Assay [3] concerns the target T2, GAL1R. The assay is described as follows: cAMP Hunter eXpress GAL1R CHO-K1 GPCR assay (inhibition of forskolin-induced cAMP). Details: expressed in transfected cells. Conditions: Table 3; CHO-K1 cells expressing GAL1R; 20 µM forskolin; 10 µM to 5 nM; (average) ratio, (n) in cell = number of assays; NA = ratio above 1000. As to the method:
To evaluate the ability of lanthipeptides to […] via GAL1R signaling, we used the cAMP Hunter™ eXpress GAL1R CHO-K1 GPCR Assay from Eurofins-DiscoverX. The assay was performed according to the manufacturer’s instructions. Briefly, for one assay, CHO-K1 cells expressing GAL1R were diluted in AssayComplete™ Cell Plating 2 Reagent, and 100 µl was seeded into each well of a 96-well plate. The plate was incubated at 37 °C, 5% CO2 in a humidified incubator. After 24 h of incubation, the media was aspirated, and 45 µl cell assay buffer/antibody mixture was added to all wells. […] Fifteen µl of the serial dilutions was applied in duplicates to the cells. The concentration of forskolin in the assay was 20 µM. The agonists were incubated for 30 min at 37 °C. Next, 15 µL Antibody Solution and 60 μL cAMP Working Detection Solution were added, and the plate was incubated for 1 h in the dark at room temperature. Finally, 60 μL cAMP Solution A was added and, after 3 h of incubation in the dark at room temperature, the chemiluminescent signal was read with a Synergy HT Biotek reader.

Assay [4] deals with T1, GAL2R. The assay can be described thus: PathHunter eXpress β-arrestin recruitment assay, GAL2R. Also noted: expressed in transfected cells. Conditions: Table 3; CHO-K1 cells co-expressing GAL2R and β-arrestin 2; 10 µM to 5 nM; (average) ratio, (n) in cell = number of assays; NA = ratio above 1000. Here is the method:
as §1

Assay [5] concerns the target T2, GAL1R. The assay can be described thus: Label-free dynamic mass redistribution assay, SY5Y-R1 cells. Details: expressed in transfected cells. Conditions: GAL1R-expressing SH-SY5Y cells; 1.6 nM to 5 µM. As to the method:
SH-SY5Y cells stably expressing low levels of either human GAL1R (SY5Y-R1) or GAL2R (SY5Y-R2) and HEK293 cells expressing human GAL3R (HEK-R3) were seeded in EnSpire LFC-[…] well plates (Perkin Elmer) at a concentration of 12,000 cells per well and cultured overnight at 37 °C and 5% CO2. The medium was aspired, and the cells were washed four times with Hank’s balanced salt solution (HBSS) (+ calcium, + magnesium) supplemented with HEPES (20 mM), and the final volume was adjusted to 30 µl per well. The plate was allowed to equilibrate to assay temperature for 1 h in the EnSpire multimode reader (Perkin Elmer). Galanin-(1–30) (GL Biochem) was dissolved and diluted in water. […] A baseline read was first generated by taking 4 measurements before ligands were added. The plate was measured between 30 and 70 repeats, and each treatment was performed in triplicate. […] EC50 values were calculated using Prism 8.2.0 (GraphPad Software Inc.). The values are provided as means of all independent experiments.

Numbered stars: 1 amine (or outer) side, 2 acyl side, 3 side chain; on linkers, the order of the positions; unused ones are H or OH. Bridge positions count the residues as written; N and C are the ends. Square brackets hold non-standard residues; d marks the D form. Ends that are not written are not given here. Peptide text beside a SMILES is read from it. dAbu(3S-yl) = C[C@@H]([C@@H](N[*:1])C(=O)[*:2])[*:3]; pGlu = O=C1CC[C@@H](C(=O)O)N1

Regarding `CC(C)C[C@H](NC(=O)[C@H](CC(C)C)NC(=O)[C@H](Cc1ccc(O)cc1)NC(=O)CNC(=O)[C@H](C)NC(=O)[C@H](C)NC(=O)[C@H](CC(N)=O)NC(=O)[C@H](CC(C)C)NC(=O)[C@H](CC(N)=O)NC(=O)[C@H](Cc1c[nH]c2ccccc12)NC(=O)[C@@H]1CCC(=O)N1)C(=O)N[C@@H](C)C(=O)N[C@H]1C(=O)N[C@@H](Cc2c[nH]cn2)C(=O)N[C@@H](C)C(=O)N[C@H](C(=O)NCC(=O)N[C@@H](CC(N)=O)C(=O)N[C@@H](Cc2c[nH]cn2)C(=O)N[C@@H](CCCNC(=N)N)C(=O)O)CS[C@H]1C` [Variant M50b] ([pGlu]WNLNAAGYLLA[dAbu(3S-yl)]HACGNHR-OH; thioether 13-16; C-terminus assumed), the “EC50 ratios to Gal-(1-15), GAL2R Ca-efflux” value (“EC50 ratios … GAL2R Ca-efflux” for short) at GAL2R [1] is 2.8 (3). Besides, at GAL1R [2], the “EC50 ratios to Gal-(1-15), GAL1R ß-Arrestin” value (“EC50 ratios … GAL1R ß-Arrestin” below) was “NA (1) (NA is not active; ratios above 1000 were considered to be not active)”. Also, at GAL1R [3], the “EC50 ratios to Gal-(1-15), GAL1R cAMP” value was “NA (2) (NA is not active; ratios above 1000 were considered to be not active)”. Further, the “EC50 ratios to Gal-(1-15), GAL2R ß-Arrestin” value (“EC50 ratios … GAL2R ß-Arrestin” below) on GAL2R [4] was 4.7 (3). Moreover, the “Stimulation of GAL1R, DMR in SY5YR1 cells” value at GAL1R [5] is “stimulate GAL2R only, not GAL1R”.
`CC(C)C[C@H](NC(=O)[C@H](CC(C)C)NC(=O)[C@H](Cc1ccc(O)cc1)NC(=O)CNC(=O)[C@H](C)NC(=O)[C@H](C)NC(=O)[C@H](CC(N)=O)NC(=O)[C@H](CC(C)C)NC(=O)[C@H](CC(N)=O)NC(=O)[C@H](Cc1c[nH]c2ccccc12)NC(=O)[C@@H]1CCC(=O)N1)C(=O)NCC(=O)N1CCC[C@H]1C(=O)N[C@@H](Cc1c[nH]cn1)C(=O)N[C@@H](C)C(=O)N[C@H]1C(=O)NCC(=O)N[C@@H](CC(N)=O)C(=O)N[C@H](C(=O)N[C@@H](CCCNC(=N)N)C(=O)O)CS[C@H]1C` [Variant M74b] ([pGlu]WNLNAAGYLLGPHA[dAbu(3S-yl)]GNCR-OH; thioether 16-19; C-terminus assumed): the “EC50 ratios … GAL2R Ca-efflux” value on GAL2R [1] is 2.6 (3). Moreover, the “EC50 ratios … GAL1R ß-Arrestin” value at GAL1R [2] is recorded as 129 (1). Moreover, at GAL1R [3], the “EC50 ratios to Gal-(1-15), GAL1R cAMP” value is 13.3 (1). Further, the “EC50 ratios … GAL2R ß-Arrestin” value at GAL2R [4] is listed as 4.2 (1).
The like results for “[pGlu]WNLNAAGYLLGATAVC (also: sidechain bridge or staple (positions not given here)) [Variant M91, pyroglutamate- and methyllanthionine-containing galanin variant]” were, in that order, 1.3 (1), 3 (1), “NA (1) (NA is not active; ratios above 1000 were considered to be not active)” and 1.5 (1).
In the same order, the values of “[pGlu]WNLNAAGYLLGPTAVC (also: sidechain bridge or staple (positions not given here)) [Variant M87, pyroglutamate- and methyllanthionine-containing galanin variant]” are 1.9 (2), 260 (1), “NA (1) (NA is not active; ratios above 1000 were considered to be not active)” and 4.8 (1).
In the same order, the values of `CC(C)C[C@H](NC(=O)[C@H](CC(C)C)NC(=O)[C@H](Cc1ccc(O)cc1)NC(=O)CNC(=O)[C@H](C)NC(=O)[C@H](C)NC(=O)[C@H](CC(N)=O)NC(=O)[C@H](CC(C)C)NC(=O)[C@H](CC(N)=O)NC(=O)[C@H](Cc1c[nH]c2ccccc12)NC(=O)[C@@H]1CCC(=O)N1)C(=O)NCC(=O)N[C@@H](C)C(=O)N[C@H]1C(=O)N[C@@H](C)C(=O)N[C@@H](C(C)C)C(=O)N[C@H](C(=O)N[C@@H](CC(N)=O)C(=O)N[C@@H](Cc2c[nH]cn2)C(=O)N[C@@H](CCCNC(=N)N)C(=O)O)CS[C@H]1C` [Variant M54] ([pGlu]WNLNAAGYLLGA[dAbu(3S-yl)]AVCNHR-OH; thioether 14-17; C-terminus assumed) are 3.3 (3), 4.5 (2), 140 (2) and 1.2 (3).
For the molecule “GWNLNAAGYLLGPTAVC (also: sidechain bridge or staple (positions not given here)) [Variant M85, methyllanthionine-containing galanin variant produced in L. lactis]”, the “EC50 ratios … GAL2R Ca-efflux” value at GAL2R [1] is on record as 4.7 (1). In addition, the “EC50 ratios … GAL1R ß-Arrestin” value at GAL1R [2] was 18.0 (1). The “EC50 ratios to Gal-(1-15), GAL1R cAMP” value on GAL1R [3] was 11.6 (1). Further, the “EC50 ratios … GAL2R ß-Arrestin” value at GAL2R [4] was 6.2 (1).
